Experimental data reported in ChEMBL document CHEMBL4364275, “Jietacins, azoxy natural products, as novel NF-κB inhibitors: Discovery, synthesis, biological activity, and mode of action” (Eur J Med Chem, 2019).
Converted amounts (≈) assume the structure as drawn. The source made the active and inactive calls. No cut-off for these calls is given here.

What was measured:
[1] = test system: ATN-1; assay: Antiproliferative activity against human ATN1 cells assessed as reduction in cell viability measured after 24 hrs by MTT assay; assay type: functional; conditions: ATN-1, 24 h, read-out: ED50 (the source's name)
[2] = test system: K562; assay: Antiproliferative activity against human K562 cells assessed as reduction in cell viability at 10 ug/ml measured after 24 hrs by MTT assay relative to control; assay type: functional
[3] = species: Homo sapiens; assay: Inhibition of NF-kappaB localization in nucleus of human L540 cells at 5 ug/ml measured after 5 hrs by DAPI staining immunofluorescence microscopy
[4] = species: Homo sapiens; assay: Inhibition of NF-kappaB localization in nucleus of human L540 cells at 1.5 ug/ml measured after 5 hrs by DAPI staining immunofluorescence microscopy
[5] = species: Homo sapiens; assay: Inhibition of NF-kappaB localization in nucleus of human L540 cells at 3 ug/ml measured after 5 hrs by DAPI staining immunofluorescence microscopy
[6] = species: Homo sapiens; assay: Inhibition of NF-kappaB localization in nucleus of human L540 cells at 10 ug/ml measured after 5 to 24 hrs by DAPI staining immunofluorescence microscopy
[7] = species: Homo sapiens; assay: Inhibition of NF-kappaB localization in nucleus of human L540 cells at 6 ug/ml measured after 5 hrs by DAPI staining immunofluorescence microscopy
[8] = species: Homo sapiens; assay: Inhibition of TNF alpha stimulated NF-kappaB in human FL cells transfected with kappaB luciferase at 5 to 10 ug/ml incubated for 4 hrs followed by TNF alpha stimulation measured after 3 hrs by dual luciferase reporter gene assay; assay type: cell-based
[9] = species: Homo sapiens; assay: Inhibition of NF-kappaB localization in nucleus of human L540 cells at 0.7 ug/ml measured after 5 to 24 hrs by DAPI staining immunofluorescence microscopy
[10] = species: Homo sapiens; assay: Inhibition of NF-kappaB localization in nucleus of human L540 cells at 0.2 ug/ml measured after 5 hrs by DAPI staining immunofluorescence microscopy
[11] = species: Homo sapiens; assay: Inhibition of TNF alpha stimulated NF-kappaB in human FL cells transfected with kappaB luciferase incubated for 2 hrs followed by TNF alpha stimulation measured after 3 hrs by dual luciferase reporter gene assay; assay type: cell-based
[12] = species: Homo sapiens; assay: Antiproliferative activity against human KMM1 cells assessed as reduction in cell viability at 25 to 100 ng/ml measured after 24 to 48 hrs by MTT assay; assay type: functional, cell-based
[13] = test system: U-266; assay: Antiproliferative activity against human U266 cells assessed as reduction in cell viability at 25 to 100 ng/ml measured after 24 to 48 hrs by MTT assay; assay type: functional, cell-based
[14] = test system: KM-H2; assay: Antiproliferative activity against human KM-H2 cells assessed as reduction in cell viability at 25 to 100 ng/ml measured after 24 to 48 hrs by MTT assay; assay type: functional, cell-based
[15] = test system: L-540; assay: Antiproliferative activity against human L540 cells assessed as reduction in cell viability at 25 to 100 ng/ml measured after 24 to 48 hrs by MTT assay; assay type: functional, cell-based
[16] = test system: HeLa; assay: Antiproliferative activity against human HeLa cells assessed as reduction in cell viability at 25 to 100 ng/ml measured after 24 to 48 hrs by MTT assay; assay type: functional, cell-based
[17] = test system: K562; assay: Antiproliferative activity against human K562 cells assessed as reduction in cell viability at 25 to 100 ng/ml measured after 24 to 48 hrs by MTT assay; assay type: functional, cell-based
[18] = species: Homo sapiens; assay: Antiproliferative activity against human KK1 cells assessed as reduction in cell viability at 25 to 100 ng/ml measured after 24 to 48 hrs by MTT assay; assay type: functional, cell-based
[19] = species: Homo sapiens; assay: Antiproliferative activity against human KOB cells assessed as reduction in cell viability at 25 to 100 ng/ml measured after 24 to 48 hrs by MTT assay; assay type: functional, cell-based
[20] = test system: HeLa; assay: Inhibition of TNF alpha stimulated NF-kappaB localization in nucleus of human HeLa cells transfected with GFP-fused RelA C38S and IKBalpha expressing plasmid incubated for 2 hrs followed by TNF alpha stimulation by immunofluorescence microscopy; assay type: cell-based
[21] = test system: HeLa; assay: Inhibition of TNF alpha stimulated NF-kappaB localization in nucleus of human HeLa cells transfected with GFP-fused RelA and IKBalpha expressing plasmid incubated for 2 hrs followed by TNF alpha stimulation by immunofluorescence microscopy; assay type: cell-based
[22] = test system: HeLa; assay: Inhibition of TNF alpha stimulated NF-kappaB in human HeLa cells transfected with GFP-fused RelA mutant and IKBalpha expressing plasmid incubated for 2 hrs followed by TNF alpha stimulation by immunofluorescence microscopy; assay type: cell-based
[23] = test system: HeLa; assay: Inhibition of TNF alpha stimulated NF-kappaB in human HeLa cells transfected with GFP-fused p50 mutant and IKBalpha expressing plasmid incubated for 2 hrs followed by TNF alpha stimulation by immunofluorescence microscopy; assay type: cell-based
[24] = target: Transcription factor p65 (Homo sapiens) (UniProt Q04206); assay: Inhibition of NF-kappaB RelA association with importin alpha in human KM-H2 cells at 0.2 ug/ml after 6 hrs by immunoprecipitation method; assay type: cell-based
Chain of Transcription factor p65 (Homo sapiens) (Q04206 whole entry): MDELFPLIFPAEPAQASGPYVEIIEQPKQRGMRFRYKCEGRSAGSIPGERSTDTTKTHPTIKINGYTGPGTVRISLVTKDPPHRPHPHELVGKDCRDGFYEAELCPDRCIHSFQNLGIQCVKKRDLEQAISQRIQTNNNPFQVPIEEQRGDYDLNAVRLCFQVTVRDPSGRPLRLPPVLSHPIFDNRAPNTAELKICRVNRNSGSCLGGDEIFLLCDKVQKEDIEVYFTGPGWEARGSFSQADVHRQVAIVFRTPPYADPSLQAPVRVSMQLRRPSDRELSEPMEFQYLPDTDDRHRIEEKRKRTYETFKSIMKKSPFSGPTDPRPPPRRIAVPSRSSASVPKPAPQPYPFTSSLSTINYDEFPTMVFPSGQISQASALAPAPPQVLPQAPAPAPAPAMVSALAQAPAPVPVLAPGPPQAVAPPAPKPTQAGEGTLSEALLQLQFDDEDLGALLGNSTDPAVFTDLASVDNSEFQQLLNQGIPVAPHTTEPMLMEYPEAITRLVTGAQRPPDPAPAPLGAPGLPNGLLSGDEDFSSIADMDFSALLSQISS

[25] = Acute toxicity in rat; conditions: in vivo
[26] = target: T1, Importin subunit alpha-4 (Homo sapiens) (UniProt O00505); assay: Inhibition of importin alpha 3 in human KM-H2 cells at 0.2 ug/ml after 6 hrs by Western blot analysis (reference value: 1); assay type: cell-based
T1 sequence (whole entry): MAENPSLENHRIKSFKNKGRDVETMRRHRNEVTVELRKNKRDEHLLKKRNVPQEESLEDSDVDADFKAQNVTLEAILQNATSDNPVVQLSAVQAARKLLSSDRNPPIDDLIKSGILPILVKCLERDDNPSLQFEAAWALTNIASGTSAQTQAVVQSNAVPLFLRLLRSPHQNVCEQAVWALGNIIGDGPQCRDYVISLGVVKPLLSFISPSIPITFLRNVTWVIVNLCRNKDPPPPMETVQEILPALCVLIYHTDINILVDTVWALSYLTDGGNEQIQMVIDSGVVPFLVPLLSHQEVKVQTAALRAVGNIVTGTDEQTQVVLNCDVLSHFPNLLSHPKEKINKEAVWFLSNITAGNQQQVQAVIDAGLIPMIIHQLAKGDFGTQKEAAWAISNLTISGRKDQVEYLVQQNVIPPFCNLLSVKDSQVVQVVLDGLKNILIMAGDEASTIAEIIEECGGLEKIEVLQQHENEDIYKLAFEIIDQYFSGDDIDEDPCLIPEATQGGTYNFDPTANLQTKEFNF

Compound	EC50 [1] [µg/mL]	Activity [2] [%]	other results
C=C/[N+]([O-])=N/CCCCCCCCn1cc(CCC(C)C)nn1	0.72 (≈ 2.24 µM)	<20	
C=C/[N+]([O-])=N/CCCCCCCCOS(C)(=O)=O	1.18 (≈ 4.24 µM)	<20	
C=C/[N+]([O-])=N/CCCCCCCCO	1.05 (≈ 5.24 µM)	<20	
C=C/[N+]([O-])=N/CCc1ccccc1	1.03 (≈ 5.84 µM)	<20	inhibition [3]: Active
C=C/[N+]([O-])=N/CCCCCCCC(=O)CCCCCC	1.29 (≈ 4.57 µM)	<20	
C=C/[N+]([O-])=N/CCCCCCCCn1cc(CN(Cc2cn(CCCCCCCC/N=[N+](\[O-])C=C)nn2)Cc2cn(CCCCCCCC/N=[N+](\[O-])C=C)nn2)nn1	0.23 (≈ 0.285 µM)	<20	inhibition [4]: Active
C=C/[N+]([O-])=N/CCCCCCCCn1cc(C2CC2)nn1	0.84 (≈ 2.88 µM)	<20	inhibition [5]: Active
C=C/[N+]([O-])=N/CCCCCCCCn1cc(-c2ccccc2)nn1	0.76 (≈ 2.32 µM)	<20	
C=C/[N+]([O-])=N/CCCCCCCCn1cc(CCBr)nn1	0.97 (≈ 2.71 µM)	<20	
C=C/[N+]([O-])=N/CCCCCCCCn1cc(C2(O)CCCCC2)nn1	1.31 (≈ 3.75 µM)	<20	
C=C/[N+]([O-])=N/CCCCCCCCn1cc(CC(C)C)nn1	0.83 (≈ 2.7 µM)	<20	
C=C/[N+]([O-])=N/CCCCCCCCn1cc(C(C)(C)C)nn1	0.69 (≈ 2.24 µM)	<20	inhibition [5]: Active
C=C/[N+]([O-])=N/CCCCCCCCn1cc(-c2ccc(N)cc2)nn1	0.76 (≈ 2.22 µM)	<20	
C=C/[N+]([O-])=N/CCCCCCCCn1cc([Si](C)(C)C)nn1	0.68 (≈ 2.1 µM)	<20	
C=CC(C)(C)[C@@]12C=C(OC)C(=O)N3/C(=C/c4c[nH]cn4)C(=O)N[C@]31N(OC)c1ccccc12			inhibition [6]: inactive
C=C/[N+]([O-])=N/CCCCCCCC(=O)CCCCC[C@@H](C)CC	1.65 (≈ 5.08 µM)	<20	
C=C/[N+]([O-])=N/CCCCCCCC(=O)CCCCCCC(C)C	1.17 (≈ 3.61 µM)	<20	inhibition [7]: Active

Compound	EC50 [1] [µg/mL]	Activity [2] [%]	other results
C=C/[N+]([O-])=N/CCCCCCCC(=O)CCc1ccccc1	1.09 (≈ 3.6 µM)	<20	
C=C/[N+]([O-])=N/CCCCCCCCn1nncc1CCC(C)C	0.85 (≈ 2.64 µM)	<20	
C=C/[N+]([O-])=N/CCCCCCCCn1cc(-c2cccnc2)nn1	0.82 (≈ 2.5 µM)	<20	
C=C/[N+]([O-])=N/CCCCCCCCn1cc(CCCCO)nn1	0.71 (≈ 2.2 µM)	<20	inhibition [5]: Active
C=C/[N+]([O-])=N/CCCCCCCCO[Si](C)(C)C(C)(C)C	1.34 (≈ 4.26 µM)	<20	
C=C/[N+]([O-])=N/CCCCCCCCn1cc(CCCC)nn1	0.69 (≈ 2.24 µM)	<20	
C=C/[N+]([O-])=N/CCCCCCCC(=O)CCCCCC(C)C	1.82 (≈ 5.86 µM)	<20	inhibition [6]: Active; inhibition [8]: Active
C=C/[N+]([O-])=N/CCCCCCCCn1cc(CCCCC#N)nn1	0.97 (≈ 2.92 µM)	<20	
C=C/[N+]([O-])=N/CCCCCCCCn1cc(C(C)(C)O)nn1	1.15 (≈ 3.72 µM)	<20	
C=C/[N+]([O-])=N/CCCCCCCC(=O)CCCCC[C@H](C)CC	1.49 (≈ 4.59 µM)	<20	
C=C/[N+]([O-])=N/CCCCCCCCn1cc(C(C)C)nn1	0.84 (≈ 2.86 µM)	<20	
C=C/[N+]([O-])=N/CCCCCCCCn1cc(-c2cc3ccccc3c3ccccc23)nn1	1.03 (≈ 2.41 µM)	<20	
CC1(C)CCC2=C(O1)c1ccccc1C(=O)C2=O			inhibition [9]: inactive
C=C/[N+]([O-])=N/CCCCCCCC(C)=O	2.26 (≈ 10.6 µM)	<20	
C#CC(=O)CCCCCCC/N=[N+](\[O-])C=C	0.03 (≈ 0.135 µM)	<20	inhibition [10]: Active; inhibition [8]: Active; inhibition [11]: Dose-dependent effect; Activity [12]: Active; Activity [13]: Active; Activity [14]: Active; Activity [15]: Active; Activity [16]: Active; Activity [17]: Active; Activity [18]: Active; Activity [19]: Active; inhibition [20]: inactive; inhibition [21]: Active; inhibition [22]: inactive; inhibition [23]: Active; inhibition [24]: Active; LD50 [25]: > 300 mg/kg; fold change (FC) [26]: 0.53
C=C/[N+]([O-])=N/CCCCCCCCn1ccnn1	1.01 (≈ 4.02 µM)	<20	
